Data set [1] deals with human complement Factor B protein (Homo sapiens, UniProt P00751). The data set is described as follows: Human complement Factor B protein binding determination (TR-FRET method). The settings on record: biotinylated Factor B 25 nM, Cy5-labeled probe 75 nM, PBS pH 7.4, 2 h. The procedure: To determine the binding activity of the test compounds to human complement Factor B protein by using TR-FRET method.
Drugs were added to phosphate buffered saline PBS (pH 7.4) starting at 10 μM with 4-fold dilution and 10 concentrations in total. […] Time-resolved fluorescence resonance energy transfer (TR-FRET) data was measured using 330 nm as the excitation wavelength and 665 nm as the emission wavelength.

For data set [2], the target named is complement alternative pathway in human serum. Put plainly: Inhibition of Wieslab complement alternative pathway activation (enzyme activity determination). Type of data set: biochemical. The following applies: human serum diluted 1:23, Wieslab alternative pathway kit, absorbance at 405 nm; read-out: IC50 for alternative pathway membrane attack complex (AP MAC). The procedure: To determine the inhibitory activity of the test compounds against the complement alternative pathway in human serum by using a Wieslab complement system alternative pathway kit.
The serum was diluted with a diluent (1:23). Drugs were added to the diluted serum in 8 concentration gradients, with the highest concentration of 10 mM or 50 mM and 5-fold gradient dilution. The resulting mixture was incubated at room temperature for 15 min. The compound and the serum mixture were added to a 96-well plate (100 μL/well) provided in the kit and activated at 37° C. for 1 h. The mixture was washed three times with a washing buffer. The detection antibody (100 μL) provided in the kit was added and the mixture was incubated at room temperature for 30 min. The mixture was washed three times with a washing buffer. A substrate (100 μL) was added and the mixture was incubated at room temperature for 30 min. The absorbance at 405 nm was measured using a microplate reader.

Data set [3] is described as follows: Pharmacokinetic study in rats. Type of data set: in vivo. The settings on record: rat; male SD rats, oral intragastric administration, 10 mg/kg, plasma. The procedure:
To determine the drug concentration in the plasma of the test animals (male SD rats) at different time points after oral intragastric administration of the compounds disclosed herein by an LC/MS/MS method. To investigate the pharmacokinetic performance of the compounds disclosed herein in rats and to evaluate the pharmacokinetic characteristics.
Healthy male rats weighing 200-300 g, 2 rats in each group.
The compound disclosed herein was formulated into a 1 mg/mL clear solution with an aqueous solution of 0.5% MC (4000 cP)/0.5% Tween 80. Rats, after fasting overnight, were subjected to oral intragastric administration at a dose of 10 mg/kg. Blood was collected before administration and 0.25, 0.5, 1, 2, 4, 7, and 24 h after the administration, placed in heparin anticoagulation tubes, and centrifuged at 7000 rpm (5204 g) at 4° C. The plasma was separated and stored at −80° C. Four hours after administration, feeding was resumed. LC/MS/MS method was used to determine the content of the test compound in the plasma of the rats after oral administration. The plasma samples were analyzed after pretreatment to precipitate proteins.

SMILES strings stand for the structures.

Chain of human complement Factor B protein (P00751 26-764): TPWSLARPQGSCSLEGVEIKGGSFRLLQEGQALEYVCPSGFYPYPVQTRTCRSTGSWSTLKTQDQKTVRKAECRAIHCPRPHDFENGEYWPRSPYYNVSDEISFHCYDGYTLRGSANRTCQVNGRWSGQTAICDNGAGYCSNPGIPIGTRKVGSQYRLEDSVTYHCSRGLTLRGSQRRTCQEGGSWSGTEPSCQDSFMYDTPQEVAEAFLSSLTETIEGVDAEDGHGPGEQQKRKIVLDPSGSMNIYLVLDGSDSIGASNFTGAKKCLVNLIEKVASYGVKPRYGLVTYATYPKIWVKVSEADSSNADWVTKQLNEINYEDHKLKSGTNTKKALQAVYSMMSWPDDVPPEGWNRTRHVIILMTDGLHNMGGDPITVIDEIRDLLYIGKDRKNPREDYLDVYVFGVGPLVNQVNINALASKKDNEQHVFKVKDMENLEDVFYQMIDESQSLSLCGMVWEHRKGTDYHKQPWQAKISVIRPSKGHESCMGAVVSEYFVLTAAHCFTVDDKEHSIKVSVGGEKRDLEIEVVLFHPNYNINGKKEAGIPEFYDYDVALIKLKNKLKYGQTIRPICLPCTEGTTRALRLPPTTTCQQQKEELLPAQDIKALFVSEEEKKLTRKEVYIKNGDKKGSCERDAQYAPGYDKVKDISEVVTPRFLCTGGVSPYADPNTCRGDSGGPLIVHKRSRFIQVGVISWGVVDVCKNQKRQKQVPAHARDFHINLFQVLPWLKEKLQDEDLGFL

Broadly, the IC50 is the concentration needed to halve the response being measured. Take `COc1cc(C)c2[nH]ccc2c1CN1C2CCCC1(c1ccc(C(=O)O)cc1)CC2` (single isomer, unassigned) [Compound 7A]: the IC50 in data set [1] and in data set [2] was less than 100 nM throughout.

For `CCOC1CC2CCC(c3ccc(C(=O)O)cn3)(C1)N2Cc1c(OC)cc(C)c2[nH]ccc12` (single isomer, unassigned) [Compound 9A], the IC50 in data set [1] and in data set [2] was less than 100 nM in each case.

Broadly, the AUC(0-t) is exposure summed from dosing to a finite time, without extrapolation to infinity. As a reminder, the Cmax is the highest concentration seen after dosing. The term Tmax denotes the time from dosing to the highest level. In general, half-life refers to the time needed for the level to fall by half in the phase considered. Low values mean rapid decline, high ones slow decline. For the molecule `COc1cc(C)c2[nH]ccc2c1CN1CCC2CC1(c1ccc(C(=O)O)cc1)CCN2CC(F)(F)F` (stereo not drawn) [Compound 2], in data set [3], the AUC(0-t) was determined as 14.7 µM·h, the Cmax was 3.25 µM, the Tmax was 0.5 h and the half-life is 4.65 h. Moreover, the IC50 in data set [2] was less than 100 nM.

Regarding `COc1cc(C)c2[nH]ccc2c1CN1CCC2CC1(c1ccc(C(=O)O)cc1)CCN2CC(F)F` (stereo not drawn) [Compound 3], the IC50 in data set [2] was less than 100 nM.

The molecule `CCOC1CC2CCC(c3ccc(C(=O)O)nc3)(C1)N2Cc1c(OC)cc(C)c2[nH]ccc12` (stereo not drawn) [Compound 11] returned a concentration for half-maximal inhibition (IC50) in data set [1] of less than 100 nM.

Molecule `COc1cc(C)c2[nH]ccc2c1CN1C2CCC1(c1ccc(C(=O)O)cc1)CC(C)C2` (stereo not drawn) [Compound 12] gave an IC50 in data set [1] of less than 100 nM.

The values are drawn from patent US20240217953A1, “BICYCLIC SUBSTITUTED AROMATIC CARBOXYLIC ACID COMPOUNDS” (CHIA TAI TIANQING PHARMACEUTICAL GROUP CO., LTD., priority 2021, published 2024).
